One assay has as its target T1, Protein skinhead-1 (Caenorhabditis elegans, UniProt P34707).
T1 sequence (P34707 whole entry): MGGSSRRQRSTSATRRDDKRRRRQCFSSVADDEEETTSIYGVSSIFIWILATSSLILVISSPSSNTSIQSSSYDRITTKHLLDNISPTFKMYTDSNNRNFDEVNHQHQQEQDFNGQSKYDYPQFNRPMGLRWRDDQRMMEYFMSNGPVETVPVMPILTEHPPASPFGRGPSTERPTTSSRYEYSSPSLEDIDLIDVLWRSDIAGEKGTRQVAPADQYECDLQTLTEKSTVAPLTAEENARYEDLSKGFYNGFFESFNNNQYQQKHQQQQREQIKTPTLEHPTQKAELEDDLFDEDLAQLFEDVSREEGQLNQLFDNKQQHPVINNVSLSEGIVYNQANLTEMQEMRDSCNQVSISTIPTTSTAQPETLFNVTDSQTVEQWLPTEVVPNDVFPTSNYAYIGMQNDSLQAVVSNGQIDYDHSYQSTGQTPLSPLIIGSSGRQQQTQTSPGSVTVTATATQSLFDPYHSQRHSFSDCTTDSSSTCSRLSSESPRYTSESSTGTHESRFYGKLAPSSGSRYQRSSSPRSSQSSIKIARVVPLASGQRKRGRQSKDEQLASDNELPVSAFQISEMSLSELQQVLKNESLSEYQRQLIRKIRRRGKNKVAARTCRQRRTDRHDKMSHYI
In kind it is functional.

A short description of assay [1]: inhibitors of intracellular T. cruzi replication, confirmation, NIH3T3 host cells, beta-gal luminescence (AID 2044).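 Note: intracellular parasites grown in NIH/3T3 mouse fibroblasts as host cells; luminescent beta-galactosidase reporter signal from transgenic T. cruzi replicating inside host cells; inhibitors lower the luminescence signal.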 In kind it is functional, cell-based.
The nature of assay [2]: cytotoxicity toward NIH3T3 fibroblasts, dose response, counter-screen, cell-based, ATP luminescence, mouse fibroblasts (AID 2010).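 Note: cells exposed to compound for about 90 hours before reading.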 In kind it is functional.
Assay [3] can be described thus: Luminescence Cell-Based Dose Retest to Confirm Inhibitors of Cancer Stem Cells. [Related pubchem assays (depositor defined):AID2717, AID2721]. In kind it is functional. Particulars: Homo sapiens.
Assay [4] has as its target T2, Rac GTPase-activating protein 1 (Homo sapiens, UniProt Q9H0H5).
T2 sequence (Q9H0H5 whole entry): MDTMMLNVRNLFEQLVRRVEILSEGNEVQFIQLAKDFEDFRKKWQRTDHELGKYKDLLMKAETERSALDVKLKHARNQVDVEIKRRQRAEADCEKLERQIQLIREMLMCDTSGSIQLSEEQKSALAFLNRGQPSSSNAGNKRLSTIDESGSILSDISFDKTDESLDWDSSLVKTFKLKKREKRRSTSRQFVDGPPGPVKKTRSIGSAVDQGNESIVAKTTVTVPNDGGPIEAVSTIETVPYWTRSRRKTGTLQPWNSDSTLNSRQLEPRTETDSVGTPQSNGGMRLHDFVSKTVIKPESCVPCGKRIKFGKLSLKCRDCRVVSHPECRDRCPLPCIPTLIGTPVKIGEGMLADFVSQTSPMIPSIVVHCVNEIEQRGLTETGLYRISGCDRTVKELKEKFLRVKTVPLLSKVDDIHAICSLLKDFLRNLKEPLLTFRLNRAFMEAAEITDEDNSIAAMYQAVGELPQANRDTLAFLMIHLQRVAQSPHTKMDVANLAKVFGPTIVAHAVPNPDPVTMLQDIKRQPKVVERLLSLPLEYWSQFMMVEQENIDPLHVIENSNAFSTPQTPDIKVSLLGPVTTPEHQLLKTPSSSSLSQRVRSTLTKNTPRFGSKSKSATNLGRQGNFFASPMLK
In words: MgcRacGAP GTPase-activating activity inhibitors, confirmation, biochemical, ADP Hunter fluorescence, primary and confirmatory (AID 624330). In kind it is functional.

The next assay concerns the target Paired box protein Pax-8 (Homo sapiens, UniProt Q06710). Put plainly: inhibitors of PAX8-driven TPO luciferase reporter, dose response, RMG-I cells, cherry-pick (AID 687027).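 Note: luciferase reporter driven by Pax8 target thyroperoxidase promoter measured by SteadyGlo luminescence.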 In kind it is functional, cell-based.
Assay [5] concerns the target FAD-linked sulfhydryl oxidase ALR (Homo sapiens, UniProt P55789). In words: inhibitors of human ALR sulfhydryl oxidase, dose response, biochemical, H2O2 detection, luminescence, cherry-pick (AID 493248).
The subject of the next assay is H4. In words: Luminescence Cell-Based Dose Response HTS to Identify Activators of 5'UTR Stem-Loop Driven Prion Protein mRNA Translation in H4 Neuroglioblastoma Cells. [Related pubchem assays: 1829 (Project Summary), 1814 (Primary HTS)]. The conditions noted are these: Homo sapiens. In kind it is functional.
Assay [6] has as its system Streptococcus sp. 'group A'. In words: growth inhibition of control SK(-) GAS strain, dose response, counter-screen for streptokinase expression inhibitor project, luminescence, kanamycin, BacTiterGlo, confirmation (AID 1900). In kind it is functional, organism-based.
Another assay deals with T3, Streptokinase A (Streptococcus pyogenes serotype M1, UniProt P10520).
T3 sequence (P10520 whole entry): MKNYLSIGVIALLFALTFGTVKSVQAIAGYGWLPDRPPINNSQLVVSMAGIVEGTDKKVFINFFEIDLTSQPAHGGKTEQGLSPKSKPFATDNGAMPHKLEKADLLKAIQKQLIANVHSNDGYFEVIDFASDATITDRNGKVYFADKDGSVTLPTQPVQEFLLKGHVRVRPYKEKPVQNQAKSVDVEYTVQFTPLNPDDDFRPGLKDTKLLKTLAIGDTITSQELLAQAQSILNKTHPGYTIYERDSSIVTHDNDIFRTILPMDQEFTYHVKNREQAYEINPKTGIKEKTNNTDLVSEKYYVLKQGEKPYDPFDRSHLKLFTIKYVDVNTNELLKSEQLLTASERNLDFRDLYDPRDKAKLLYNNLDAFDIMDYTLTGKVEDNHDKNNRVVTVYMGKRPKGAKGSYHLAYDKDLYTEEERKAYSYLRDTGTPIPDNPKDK
Put plainly: S. pyogenes streptokinase expression inhibitors, potency, dose response, plasminogen activation absorbance, OD405 (AID 1914).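 Note: secreted streptokinase activity via plasminogen activation per viability signal from cell pellet.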 In kind it is functional, Streptococcus pyogenes M1 GAS.

The test system of another assay is Streptococcus. In words: Group A Streptococcus viability loss, dose response, counter-screen for streptokinase expression inhibitor project, luminescence, BacTiterGlo (AID 1915).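 Note: potency for reduction of bacterial viability or growth.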 In kind it is functional, organism-based.
Another assay has as its system INS1. In words: beta cell apoptosis inhibitors, cytokine rescue, dose response, luminescence, retest (AID 449756).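 Note: cell death triggered by IL-1 beta plus TNF-alpha plus IFN-gamma mixture; protective hits raise ATP signal compared with cytokine alone wells.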 Particulars: Rattus norvegicus. In kind it is functional, cell-based.

For 45 compounds, IC50, EC50 and AC50 results are on record in ChEMBL document CHEMBL1201862, “PubChem BioAssay data set” (2004).

The source made the active and inactive calls.

Chain of Paired box protein Pax-8 (Q06710 whole entry): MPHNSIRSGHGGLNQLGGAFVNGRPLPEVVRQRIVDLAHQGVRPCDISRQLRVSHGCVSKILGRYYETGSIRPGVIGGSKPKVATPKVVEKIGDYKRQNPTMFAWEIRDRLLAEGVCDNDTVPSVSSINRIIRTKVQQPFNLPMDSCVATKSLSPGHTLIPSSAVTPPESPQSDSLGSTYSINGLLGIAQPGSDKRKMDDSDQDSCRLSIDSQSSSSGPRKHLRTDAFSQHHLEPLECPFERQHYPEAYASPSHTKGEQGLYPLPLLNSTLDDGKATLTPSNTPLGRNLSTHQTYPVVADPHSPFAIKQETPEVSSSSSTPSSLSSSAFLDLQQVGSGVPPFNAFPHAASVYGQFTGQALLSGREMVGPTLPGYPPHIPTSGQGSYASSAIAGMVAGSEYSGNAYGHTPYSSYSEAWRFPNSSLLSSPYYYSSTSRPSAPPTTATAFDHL
Chain of FAD-linked sulfhydryl oxidase ALR (P55789 whole entry): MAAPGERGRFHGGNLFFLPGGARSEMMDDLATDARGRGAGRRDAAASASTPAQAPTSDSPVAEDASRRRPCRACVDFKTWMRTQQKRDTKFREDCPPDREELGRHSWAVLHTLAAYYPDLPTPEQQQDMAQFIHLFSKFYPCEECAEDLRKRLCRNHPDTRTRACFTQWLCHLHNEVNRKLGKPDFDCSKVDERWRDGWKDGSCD

For `CN1C(=O)N(c2ccccc2)C(Nc2nncs2)C1(C)C` (centres undefined), at Protein skinhead-1, the IC50 is > 100 µM (inactive).

`COc1ccc(C2(c3ccc(OC)cc3)NC(=O)N(CC(=O)NC3CCS(=O)(=O)C3)C2=O)cc1` (centres undefined): on Protein skinhead-1, the IC50 was > 100 µM (inactive).

Regarding `CCOC(=O)c1c(-c2ccccc2)csc1NC(=O)c1nn(CC)cc1Br`, the EC50 in assay [1] is 2.06 µM (active); in assay [2], > 60 µM (not active). In addition, the AC50 in assay [3] is 0.506 µM (active).

As for `Cc1ccc(/C(C#N)=C\c2ccc(N3CCOCC3)o2)cc1`, the half-maximal effective concentration (EC50) in assay [1] was 4.37 µM (active); in assay [2], > 60 µM (inconclusive). Also, in assay [4], the IC50 is 65.6 µM (active).

With `O=C(CN1CCN(S(=O)(=O)c2ccccc2F)CC1)N1CCc2ccccc2C1`, the IC50 in assay [4] is 47.1 µM (active).

Take `C/C(=N\NC(=S)Nc1ccc(F)cc1)c1ccc2c(c1)OCCO2`: in [3], the half-maximal activity concentration (AC50) is 1.02 µM (active).

Turning to `C[C@@H]1CN([C@H](C)CO)C(=O)c2cc(NC(=O)Nc3ccccc3)ccc2O[C@@H](C)CCCCO[C@H]1CN(C)Cc1ccc(Cl)c(Cl)c1`, the AC50 on Paired box protein Pax-8 is 7.42 µM (active).

Regarding `Cc1cc(C)c(OCCOCCN2CCNCC2)c(C)c1`, the IC50 at Protein skinhead-1 is > 100 µM (inactive).

As to `CC(C)N1CCN(C(=O)c2cccc(Cl)c2)CC1`, the IC50 in [4] is 295 µM (active).

In the case of `CCOC(=O)c1c(N)sc2c(OC)c(Br)ccc12`, the IC50 in assay [4] is 203 µM (active).

For the compound `CCN(CC)c1ccc(CN2CCC(C(=O)NCc3ccc(C)cc3)CC2)cc1`, the AC50 in assay [5] is 5.7 µM (active).

With `O=[N+]([O-])c1cc2c(cc1Br)-c1ccccc1C2`, the IC50 at Protein skinhead-1 is > 100 µM (inactive).

For the compound `Cc1cc(NS(=O)(=O)c2ccc(NC(=O)c3cc(-c4cccnc4)nc4ccc(Cl)cc34)cc2)no1`, on Protein skinhead-1, the IC50 is > 100 µM (inactive).

As to `COc1ccccc1C(=O)COC(=O)c1ccc(N(C)C)cc1`, the EC50 in the assay with H4 was 1.79 µM (active).

As to `O=S(=O)(Nc1cc(O)nc(SCc2ccc(Cl)cc2)n1)c1ccccc1`, the AC50 in assay [3] was 4.07 µM (active).

On to `Oc1ccc2c(ccc3[nH]cnc32)c1`, for which the IC50 in assay [4] is 43.9 µM (active).

Consider `Cc1cc(S(=O)(=O)Nc2ccc(N(C)C)cc2)c(C)s1`, for which, in [5], the AC50 is 0.704 µM (active).

As to `C[C@@H]1CCCCO[C@@H](CN(C)C(=O)Cc2ccccc2)[C@@H](C)CN([C@@H](C)CO)C(=O)c2cc(NC(=O)Nc3ccc(C(F)(F)F)cc3)ccc2O1`, at Paired box protein Pax-8, the half-maximal activity concentration (AC50) was 4.87 µM (active).

Regarding `CCCCn1ccnc1C(=O)c1cccc(S(=O)(=O)N2c3ccccc3CC2C)c1` (centres undefined), the IC50 at Protein skinhead-1 was > 100 µM (inactive).

Turning to `Cc1sc2ncnc(N3CCC(C(=O)Nc4ccc(Cl)cc4Cl)CC3)c2c1C`, the EC50 was 23.6 µM (active) in assay [6], 91.7 µM (active) at Streptokinase A and 66 µM (active) in the assay with Streptococcus.

Take `CCN1CCN(CC(=O)Nc2nc3ccccc3s2)CC1`: the IC50 in assay [4] is 55.7 µM (active).

`Cc1ccc(NC(=S)NC(=O)c2ccc(F)cc2)cc1S(=O)(=O)Nc1cccc(Cl)c1`: the EC50 in assay [6] is 1.48 µM (active); on Streptokinase A, 11.5 µM (active); in the assay with Streptococcus, 54.2 µM (active).

With `O=C(c1c(Cl)cccc1Cl)N1CCN(c2cccc3[nH]ccc23)CC1`, in assay [4], the IC50 was 50.4 µM (active).

With `CN1CCN(NC(=O)Nc2cc(Cl)cc(Cl)c2)CC1`, the values for the EC50 (in assay [6]; on Streptokinase A; in the assay on Streptococcus) were 6.77 µM (active), 21.7 µM (active) and > 150 µM (not active), respectively.

Take `COCc1cc(C)nc(OCC(=O)N/N=C/c2ccc(O)cc2)c1C#N`: the half-inhibitory concentration (IC50) in assay [4] is 83.2 µM (active).

Take `CCCS(=O)(=O)NCc1ccc2c(c1)cc(C)n2C`: the IC50 at Protein skinhead-1 was > 100 µM (inactive).

Regarding `CCOC(=O)N1CCN(S(=O)(=O)c2ccc(C(=O)NNc3nc4ccc(Cl)cc4s3)cc2)CC1`, the AC50 in the assay with INS1 is 3.39 µM (active).

With `O=C(NC1CCN(C(=S)Nc2ccc(Cl)cc2)CC1)c1ccco1`, at Protein skinhead-1, the IC50 is > 100 µM (inactive).

For the compound `CCC(=O)NNc1ccc(Br)cc1`, the AC50 in assay [3] is 1.82 µM (active).

`CCN(CC)c1ccc(S(=O)(=O)Nc2cc(Cl)ccc2Cl)cc1NC(=S)NC(=O)C1CCCC1`: the AC50 in [3] is 1.65 µM (active).

Consider `COc1ccc(-c2sc3ccccc3c2C#CC2(O)CCCCC2)cc1`, for which the EC50 in assay [6] is 3.52 µM (active); at Streptokinase A, 6.81 µM (active); in the assay with Streptococcus it was 8.22 µM (active). Moreover, the AC50 in assay [3] is 3.73 µM (active).

`COc1ccc(CNc2ncc(-c3ccc(Br)cc3)n2C)cc1OC`: in [4], the IC50 is 55.6 µM (active).

Take `CCc1ccc(/C=C/c2c([N+](=O)[O-])c(=O)n(C)c(=O)n2C)cc1`: the EC50 in assay [6] is 4.55 µM (active); at Streptokinase A it was > 150 µM (not active); in the assay with Streptococcus, 18 µM (active).

With `Cc1ccc(S(=O)(=O)N2CC=C(c3c(C)n(C)c4ccccc34)CC2)cc1`, the IC50 on Protein skinhead-1 was > 100 µM (inactive).

On to `COC(=O)c1c(-c2ccccc2)noc1-c1ccccc1`, for which, at Protein skinhead-1, the IC50 is 58.6 µM (inactive).

In the case of `Cc1ccc(-n2nnnc2SCC(=O)c2cc(C)n(-c3cc(C)on3)c2C)c(C)c1`, the EC50 is 25.6 µM (active) in assay [6], 89.2 µM (active) on Streptokinase A and > 150 µM (not active) with Streptococcus.

Take `CN1c2ccc(-c3ccc(C#N)cc3)cc2[C@@H]2[C@@H](CCN2C(=O)NC2CCCCC2)[C@@H]1CO`: on Paired box protein Pax-8, the AC50 is 19.9 µM (active).

With `Brc1ccc(-[n+]2c(-c3ccccc3)cc(-c3ccccc3)cc2-c2ccccc2)cc1.[O-][Cl+3]([O-])([O-])[O-]`, the concentration at half-maximal activity (AC50) with INS1 was 2.04 µM (active).

For `Nc1ccc(OCCc2ccccc2)cc1`, the IC50 in [4] is 31.2 µM (active).

As for `Cc1ccc(CSCC(=O)N2CCOCC2)cc1`, the IC50 at Protein skinhead-1 was > 100 µM (inactive).

As to `COc1ccc(-c2nn(CC(=O)Nc3ccc(Cl)c(Cl)c3)c(=O)c3ccccc23)cc1`, at Protein skinhead-1, the IC50 is > 100 µM (inactive).

With `CN(CC(=O)Nc1ccccc1Cl)C(=O)c1cccc(-n2cccc2)c1`, the AC50 in assay [3] was > 195 µM (inactive).

For `O=C(c1cc(-c2cccs2)nc2ccccc12)N1CCN(c2ccccc2O)CC1`, the 50% effective concentration (EC50) in [6] is 21.8 µM (active); on Streptokinase A, 144 µM (active); in the assay with Streptococcus, 54.8 µM (active).

For `CCn1c2ccccc2c2cc(NS(=O)(=O)c3ccc(C)cc3)ccc21`, the AC50 in [3] is 2.87 µM (active).

For the compound `C/C(N=Nc1ccccc1O)=N\Nc1nc2ccccc2s1`, the half-maximal activity concentration (AC50) in assay [3] is 3.71 µM (active).
